Results from patent US9708331B2, “Metabotrophic glutamate receptor 5 modulators and methods of use thereof” (SUNOVION PHARMACEUTICALS INC., priority 2011, dated 2017).
One block for each compound: values may come before it.

Target: mGluR5 (Homo sapiens, UniProt P41594)
Assay: mGluR5 PAM EC50 (positive allosteric modulator potency)
Type: cell-based

Chain of mGluR5 (P41594 21-1212): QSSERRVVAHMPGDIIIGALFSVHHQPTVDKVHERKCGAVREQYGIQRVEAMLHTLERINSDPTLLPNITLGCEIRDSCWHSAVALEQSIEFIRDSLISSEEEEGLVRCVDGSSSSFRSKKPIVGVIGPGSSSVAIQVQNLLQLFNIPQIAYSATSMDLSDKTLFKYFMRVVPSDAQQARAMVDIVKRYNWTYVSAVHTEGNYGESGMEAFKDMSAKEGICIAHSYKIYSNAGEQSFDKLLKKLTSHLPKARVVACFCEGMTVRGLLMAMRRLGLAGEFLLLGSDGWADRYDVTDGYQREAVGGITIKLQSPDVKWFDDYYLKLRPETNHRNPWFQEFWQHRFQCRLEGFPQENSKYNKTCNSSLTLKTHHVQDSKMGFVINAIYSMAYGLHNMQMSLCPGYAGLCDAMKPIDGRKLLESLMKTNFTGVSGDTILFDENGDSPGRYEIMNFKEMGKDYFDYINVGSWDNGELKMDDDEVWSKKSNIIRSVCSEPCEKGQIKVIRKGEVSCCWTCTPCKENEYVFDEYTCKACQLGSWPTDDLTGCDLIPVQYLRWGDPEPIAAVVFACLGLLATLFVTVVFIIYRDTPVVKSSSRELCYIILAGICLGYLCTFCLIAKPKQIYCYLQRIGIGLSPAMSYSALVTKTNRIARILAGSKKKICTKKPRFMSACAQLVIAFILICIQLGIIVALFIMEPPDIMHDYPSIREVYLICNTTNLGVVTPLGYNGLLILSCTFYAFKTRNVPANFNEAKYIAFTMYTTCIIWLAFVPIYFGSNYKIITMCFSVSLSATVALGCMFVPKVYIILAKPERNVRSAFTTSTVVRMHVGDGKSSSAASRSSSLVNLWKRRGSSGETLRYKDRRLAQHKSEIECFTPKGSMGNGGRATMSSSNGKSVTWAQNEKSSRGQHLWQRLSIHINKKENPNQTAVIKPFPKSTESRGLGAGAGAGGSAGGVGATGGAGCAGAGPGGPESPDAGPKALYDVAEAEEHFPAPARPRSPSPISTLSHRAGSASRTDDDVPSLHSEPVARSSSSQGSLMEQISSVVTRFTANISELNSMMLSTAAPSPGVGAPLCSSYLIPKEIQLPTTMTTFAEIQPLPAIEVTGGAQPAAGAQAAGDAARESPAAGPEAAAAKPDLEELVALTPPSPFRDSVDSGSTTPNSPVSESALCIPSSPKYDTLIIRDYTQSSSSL

EC50: 30 to 100 nM
Compound: O=c1c2ncc(C#Cc3ccccn3)cc2nc2n1CCC(C(F)(F)F)C2 (centres unmarked) [Example 2.21, 3-(pyridin-2-ylethynyl)-7-(trifluoromethyl)-8,9-dihydro-6H-dipyrido[1,2-a:3′,2′-d]pyrimidin-11(7H)-one]

EC50: 100 to 300 nM
Compound: C/C(=C\c1ccc2c(=O)n3c(nc2c1)CCC(C)(C)C3)c1ccccn1 [Example 6.5, (E)-8,8-dimethyl-3-(2-(pyridin-2-yl)prop-1-en-1-yl)-8,9-dihydro-6H-pyrido[2,1-b]quinazolin-11(7H)-one]

EC50: 10 to 30 nM
Compound: C=CC1(F)CCc2nc3cc(C#Cc4ccccn4)ccc3c(=O)n2C1 (centres unmarked) [Example 2.38, 8-fluoro-3-(pyridin-2-ylethynyl)-8-vinyl-8,9-dihydro-6H-pyrido[2,1-b]quinazolin-11(7H)-one]

EC50: 100 to 300 nM
Compound: CC1(C)CCC2Cn3c(nc4cc(C#Cc5ccccn5)ccc4c3=O)CN21 (centres unmarked) [Example 2.26, 3,3-dimethyl-8-(pyridin-2-ylethynyl)-2,3,13,13a-tetrahydro-1H-pyrrolo[1′,2′:4,5] pyrazino[2,1-b]quinazolin-11(5H)-one]

EC50: 30 to 100 nM
Compound: CCC1(F)CCc2nc3cc(C#Cc4ccccn4)cnc3c(=O)n2CC1 (centres unmarked) [Example 3.18, 8-ethyl-8-fluoro-3-(pyridin-2-ylethynyl)-7,8,9,10-tetrahydropyrido[3′,2′:4,5]pyrimido [1,2-a]azepin-12(6H)-one]

EC50: 30 to 100 nM
Compound: CC1(C)CCc2nc3cc(C(=O)Cc4ccccn4)ccc3c(=O)n2C1 [Example 6.7, 8,8-dimethyl-3-(2-(pyridin-2-yl)acetyl)-8,9-dihydro-6H-pyrido[2,1-b]quinazolin-11(7H)-one]

EC50: 10 to 30 nM
Compound: Cc1cc(C#Cc2ccc3c(=O)n4c(nc3c2)CCC(C)(C)C4)ccn1 [Example 2.46, 8,8-dimethyl-3-((2-methylpyridin-4-yl)ethynyl)-8,9-dihydro-6H-pyrido[2,1-d]quinazolin-11(7H)-one]

EC50: 300 to 1000 nM
Compound: CC1(C)CCc2nc3cc(Nc4ccccn4)ccc3c(=O)n2C1 [Example 6.2, 8,8-dimethyl-3-(pyridin-2-ylamino)-8,9-dihydro-6H-pyrido[2,1-b]quinazolin-11(7H)-one]

EC50: 10 to 30 nM
Compound: N#Cc1ccnc(C#Cc2ccc3c(=O)n4c(nc3c2)CCCCC4)c1 [Example 3.5, 2-((12-oxo-6,7,8,9,10,12-hexahydroazepino[2,1-b]quinazolin-3-yl)ethynyl)isonicotinonitrile]

EC50: 10 to 30 nM
Compound: CC1(C)CCc2nc3cc(C#Cc4ccc(C#N)cn4)ccc3c(=O)n2C1 [Example 2.39, 6-((8,8-dimethyl-11-oxo-7,8,9,11-tetrahydro-6H-pyrido[2,1-b]quinazolin-3-yl)ethynyl)nicotinonitrile]

EC50: 30 to 100 nM
Compound: O=c1c2ncc(C#Cc3ccccn3)cc2nc2n1CC(F)(F)CCC2 [Example 3.26, 9,9-difluoro-3-(pyridin-2-ylethynyl)-7,8,9,10-tetrahydropyrido[3′,2′:4,5]pyrimido [1,2-a]azepin-12(6H)-one]

EC50: 10 to 30 nM
Compound: CCC1(F)CCc2nc3cc(C#Cc4ccccn4)ccc3c(=O)n2CC1 (centres unmarked) [Example 3.17, 8-ethyl-8-fluoro-3-(pyridin-2-ylethynyl)-7,8,9,10-tetrahydroazepino[2,1-b]quinazolin-12(6H)-one]

EC50: < 10 nM
Compound: CC1(C)CCc2nc3cc(C#Cc4cncc(F)c4)ccc3c(=O)n2C1 [Example 2.89, 3-((5-fluoropyridin-3-yl)ethynyl)-8,8-dimethyl-8,9-dihydro-6H-pyrido[2,1-b]quinazolin-11(7H)-one]

EC50: < 10 nM
Compound: Cc1cnc(C#Cc2ccc3c(=O)n4c(nc3c2)CCC(C)(C)C4)s1 [Example 2.50, 8,8-dimethyl-3-((5-methylthiazol-2-yl)ethynyl)-8,9-dihydro-6H-pyrido[2,1-b]quinazolin-11(7H)-one]

EC50: 30 to 100 nM
Compound: CC1(C)CCc2nc3cc(OCc4ccccn4)ccc3c(=O)n2C1 [Example 4.5, 8,8-dimethyl-3-(pyridin-2-ylmethoxy)-8,9-dihydro-6H-pyrido[2,1-b]quinazolin-11(7H)-one]

EC50: 10 to 30 nM
Compound: CC1(C)CCc2nc3cc(C#Cc4ccccc4F)ccc3c(=O)n2C1 [Example 2.73, 3-((2-fluorophenyl)ethynyl)-8,8-dimethyl-8,9-dihydro-6H-pyrido[2,1-b]quinazolin-11(7H)-one]

EC50: 10 to 30 nM
Compound: Cc1csc(/C=C/c2ccc3c(=O)n4c(nc3c2)CCC(C)(C)C4)n1 [Example 4.3, (E)-8,8-dimethyl-3-(2-(4-methylthiazol-2-yl)vinyl)-8,9-dihydro-6H-pyrido[2,1-b]quinazolin-11(7H)-one]

EC50: < 10 nM
Compound: CC1(C)CCc2nc3cc(C#Cc4ccc(F)nc4)ccc3c(=O)n2C1 [Example 2.88, 3-((6-fluoropyridin-3-yl)ethynyl)-8,8-dimethyl-8,9-dihydro-6H-pyrido[2,1-b]quinazolin-11(7H)-one]

EC50: 30 to 100 nM
Compound: CC1(CO)CCc2nc3cc(C#Cc4ccccn4)ccc3c(=O)n2C1 (centres unmarked) [Example 2.99, 8-(hydroxymethyl)-8-methyl-3-(pyridin-2-ylethynyl)-8,9-dihydro-6H-pyrido[2,1-b]quinazolin-11(7H)-one]

The next lines start with the compound.

Compound: CC1CCn2c(nc3cc(C#Cc4ccccn4)ccc3c2=O)C1 (single isomer, unassigned) [Example 2.1a]
EC50: 10 to 30 nM

Compound: CC1(C)Cn2c(nc3cc(C#Cc4ccccn4)cnc3c2=O)C1F (centres unmarked) [Example 1.20, 6-fluoro-7,7-dimethyl-3-(pyridin-2-ylethynyl)-7,8-dihydropyrido[3,2-d]pyrrolo[1,2-a]pyrimidin-10(6H)-one]
EC50: 100 to 300 nM

Compound: CC1CCc2nc3cc(C#Cc4ccccn4)cnc3c(=O)n2C1 (single isomer, unassigned) [Example 2.16b]
EC50: 100 to 300 nM

Compound: CCC1CCc2nc3cc(C#Cc4ccccn4)ccc3c(=O)n2CC1 (single isomer, unassigned) [Example 3.13a]
EC50: < 10 nM

Compound: O=c1c2ccc(C#Cc3ccccn3)cc2nc2n1CC1CCCCN21 (centres unmarked) [Example 1.23, 3-(pyridin-2-ylethynyl)-9,10,10a,11-tetrahydro-7H-pyrido[1′,2′:3,4]imidazo[2,1-b]quinazolin-13(8H)-one]
EC50: 30 to 100 nM

Compound: CC1Cn2c(nc3cc(C#Cc4ccccn4)ccc3c2=O)CO1 (single isomer, unassigned) [Example 2.4b]
EC50: < 10 nM

Compound: O=c1c2ccc(C#Cc3ccccn3)cc2nc2n1CCC(O)CC2 (single isomer, unassigned) [Example 3.2a]
EC50: 300 to 1000 nM

Compound: O=c1c2ccc(C#Cc3ccccn3)cc2nc2n1CCC1(CCCO1)CC2 (single isomer, unassigned) [Example 3.3a]
EC50: 30 to 100 nM

Compound: CC1(F)CCc2nc3cc(C#Cc4ccccn4)ccc3c(=O)n2C1 (single isomer, unassigned) [Example 2.13a]
EC50: 10 to 30 nM

Compound: CCC1CCc2nc3cc(C#Cc4ccccn4)cnc3c(=O)n2CC1 (single isomer, unassigned) [Example 3.14a]
EC50: 30 to 100 nM

Compound: O=c1c2ccc(C#Cc3ccccn3)cc2nc2n1CC1(COC1)C2 [Example 1.6, 6′-(pyridin-2-ylethynyl)-1′H-spiro[oxetane-3,2′-pyrrolo[2,1-b]quinazolin]-9′(3′H)-one]
EC50: 30 to 100 nM

Compound: CC1(F)CCCc2nc3cc(C#Cc4ccccn4)ccc3c(=O)n2C1 (single isomer, unassigned) [Example 3.24a]
EC50: < 10 nM

Compound: CC1(F)CCc2nc3cc(C#Cc4ccccn4)cnc3c(=O)n2CC1 (single isomer, unassigned) [Example 3.10a]
EC50: 100 to 300 nM

Compound: CC1(C)CCc2nc3cc(C#Cc4cc(C#N)ccn4)ccc3c(=O)n2C1 [Example 2.25b, 2-((8,8-dimethyl-11-oxo-7,8,9,11-tetrahydro-6H-pyrido[2,1-b]quinazolin-3-yl)ethynyl)isonicotinonitrile]
EC50: < 10 nM

Compound: COCCC1Cc2nc3cc(C#Cc4ccccn4)cnc3c(=O)n2C1 (centres unmarked) [Example 1.18, 7-(2-methoxyethyl)-3-(pyridin-2-ylethynyl)-7,8-dihydropyrido[3,2-d]pyrrolo[1,2-a]pyrimidin-10(6H)-one]
EC50: 300 to 1000 nM

Compound: CC1CCc2nc3c(F)c(C#Cc4ccccn4)ccc3c(=O)n2CC1 (single isomer, unassigned) [Example 3.12a]
EC50: < 10 nM

Compound: O=c1c2ccc(C#Cc3ccccn3)cc2nc2n1CC1CC(F)(F)CN1CC2 (centres unmarked) [Example 3.33a, 2,2-difluoro-9-(pyridin-2-ylethynyl)-2,3,5,6,14,14a-hexahydropyrrolo[2′,1′:3,4][1,4] diazepino[7,1-b]quinazolin-12(1H)-one]
EC50: 30 to 100 nM

Compound: CC1CCn2c(nc3cc(C#Cc4ccccn4)cnc3c2=O)C1 (single isomer, unassigned) [Example 2.17b]
EC50: 300 to 1000 nM

Compound: O=c1c2ncc(C#Cc3ccccn3)cc2nc2n1CC(C(F)(F)F)C2 (centres unmarked) [Example 1.17, 3-(pyridin-2-ylethynyl)-7-(trifluoromethyl)-7,8-dihydropyrido[3,2-d]pyrrolo[1,2-a]pyrimidin-10(6H)-one]
EC50: 100 to 300 nM

Compound: CC(C)(O)C1Cc2nc3cc(C#Cc4ccccn4)ccc3c(=O)n2C1 (single isomer, unassigned) [Example 1.2a]
EC50: 10 to 30 nM

Compound: CCC1CCc2nc3cc(C#Cc4ccccn4)cnc3c(=O)n2C1 (single isomer, unassigned) [Example 2.22b]
EC50: 100 to 300 nM

Compound: CC1(C)CCc2nc3cc(/C=C/c4cc(C#N)ccn4)ccc3c(=O)n2C1 [Example 4.1b, (E)-2-(2-(8,8-dimethyl-11-oxo-7,8,9,11-tetrahydro-6H-pyrido[2,1-b]quinazolin-3-yl)vinyl)isonicotinonitrile]
EC50: 300 to 1000 nM

Compound: COCC1Cc2nc3cc(C#Cc4ccccn4)ccc3c(=O)n2C1 (single isomer, unassigned) [Example 1.1b]
EC50: 100 to 300 nM

Compound: CC1CCc2nc3c(F)c(C#Cc4ccccn4)ccc3c(=O)n2CC1 (single isomer, unassigned) [Example 3.12b]
EC50: 10 to 30 nM

Compound: CC1(C)CCn2c(nc3cc(C#Cc4ccccn4)c(F)cc3c2=O)C1 [Example 2.31a, 2-fluoro-7,7-dimethyl-3-(pyridin-2-ylethynyl)-8,9-dihydro-6H-pyrido[2,1-b]quinazolin-11(7H)-one]
EC50: 30 to 100 nM

Compound: O=c1c2ccc(C#Cc3ccccn3)cc2nc2n1CCC(O)CC2 (single isomer, unassigned) [Example 3.2b]
EC50: 30 to 100 nM

Compound: CC1CCCc2nc3cc(C#Cc4ccccn4)ccc3c(=O)n21 (single isomer, unassigned) [Example 2.3b]
EC50: < 10 nM

Compound: CC1Cn2c(nc3cc(C#Cc4ccccn4)cnc3c2=O)CCC1(F)F (single isomer, unassigned) [Example 3.31e]
EC50: 30 to 100 nM
